Tests used:
IGF-1R = biological target: T1, IGF-1R (Homo sapiens, UniProt P08069); assay: Z`-LYTE kinase profiling, IGF-1R; assay type: biochemical
T1 construct: purchased Invitrogen/Life Technologies

VEGFR-2 = biological target: T2, VEGFR-2 (Homo sapiens, UniProt P35968); assay: Z`-LYTE kinase profiling, VEGFR-2; assay type: biochemical
T2 construct: purchased Invitrogen/Life Technologies

FAK = FAK (Homo sapiens, UniProt Q05397); assay: Z`-LYTE kinase inhibitory assay, FAK
[1] = test system: HCT-116 colorectal cancer cell line; assay: MTT antiproliferative assay, HCT-116; conditions: for GI% HCT-116: 10 µM, 24 h, MTT; for IC50: Homo sapiens, HCT-116, 24 h, read-out: IC50 HCT-116 (half maximal growth inhibitory concentration)
Method: (§2) After the incubation of the tested compounds for 24 h, the percent growth inhibition (GI%) was calculated.
(§3) Cells were seeded at 1 × 10^4 cells/well and cultured overnight in a 96-well plate. […] Then, 150 µl DMSO was used to solubilise MTT formazan crystals. Finally, the plates were shaken, and the optical density was determined at 570 nm using ELISA plate reader. At least, three independent experiments were performed. Percentage of growth inhibition was determined as (1-[OD of treated cells/OD of control cells]). […] The IC50 values were calculated using Prism v0.8 software (GraphPad Software Inc., La Jolla, CA).

HER-2 = biological target: T3, HER-2 (Homo sapiens, UniProt P04626); assay: Z`-LYTE kinase profiling, HER-2; assay type: biochemical
T3 construct: purchased Invitrogen/Life Technologies
T3 sequence (P04626 23-1255): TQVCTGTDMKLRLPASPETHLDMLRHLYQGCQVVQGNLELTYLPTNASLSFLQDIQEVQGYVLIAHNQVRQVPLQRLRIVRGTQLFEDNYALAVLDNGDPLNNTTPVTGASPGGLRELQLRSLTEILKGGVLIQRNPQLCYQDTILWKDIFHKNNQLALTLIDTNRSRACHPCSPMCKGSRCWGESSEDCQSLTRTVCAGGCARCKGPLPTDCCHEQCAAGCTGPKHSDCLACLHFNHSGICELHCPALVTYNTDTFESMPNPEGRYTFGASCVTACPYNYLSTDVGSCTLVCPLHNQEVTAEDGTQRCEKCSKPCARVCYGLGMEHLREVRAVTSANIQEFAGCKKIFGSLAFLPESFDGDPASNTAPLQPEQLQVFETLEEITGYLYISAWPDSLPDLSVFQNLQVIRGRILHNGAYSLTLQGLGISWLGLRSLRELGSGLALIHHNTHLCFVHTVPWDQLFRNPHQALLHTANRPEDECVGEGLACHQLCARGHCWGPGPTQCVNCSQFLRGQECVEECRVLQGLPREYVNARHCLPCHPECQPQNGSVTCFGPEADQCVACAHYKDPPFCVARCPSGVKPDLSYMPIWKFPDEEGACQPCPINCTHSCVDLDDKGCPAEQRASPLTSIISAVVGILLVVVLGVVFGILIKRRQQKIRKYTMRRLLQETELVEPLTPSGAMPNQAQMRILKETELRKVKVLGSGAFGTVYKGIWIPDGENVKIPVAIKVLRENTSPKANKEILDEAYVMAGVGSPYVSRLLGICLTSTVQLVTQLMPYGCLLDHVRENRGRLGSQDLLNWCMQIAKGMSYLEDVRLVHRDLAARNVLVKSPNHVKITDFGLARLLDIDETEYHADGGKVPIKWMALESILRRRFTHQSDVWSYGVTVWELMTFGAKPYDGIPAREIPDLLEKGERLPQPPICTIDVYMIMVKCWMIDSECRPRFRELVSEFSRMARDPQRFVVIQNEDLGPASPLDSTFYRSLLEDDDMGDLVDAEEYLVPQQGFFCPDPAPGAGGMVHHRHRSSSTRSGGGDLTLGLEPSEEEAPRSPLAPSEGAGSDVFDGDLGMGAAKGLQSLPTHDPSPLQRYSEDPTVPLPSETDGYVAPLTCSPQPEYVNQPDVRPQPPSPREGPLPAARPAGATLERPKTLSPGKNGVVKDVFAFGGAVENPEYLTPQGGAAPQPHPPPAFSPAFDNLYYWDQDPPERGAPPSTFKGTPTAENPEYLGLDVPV

FRK = biological target: T4, FRK (Homo sapiens, UniProt P42685); assay: Z`-LYTE kinase profiling, FRK; assay type: biochemical
T4 construct: purchased Invitrogen/Life Technologies

[2] = test system: DLD-1 colorectal cancer cell line; assay: MTT antiproliferative assay, DLD-1; conditions: for GI% DLD1: 10 µM, 24 h, MTT; for IC50: Homo sapiens, DLD-1, 24 h, read-out: IC50 DLD1 (half maximal growth inhibitory concentration)
Method: as §2, §3

EGFR = EGFR (Homo sapiens, UniProt P00533); assay: Z`-LYTE kinase inhibitory assay, EGFR
Sequence of EGFR (P00533 25-1210): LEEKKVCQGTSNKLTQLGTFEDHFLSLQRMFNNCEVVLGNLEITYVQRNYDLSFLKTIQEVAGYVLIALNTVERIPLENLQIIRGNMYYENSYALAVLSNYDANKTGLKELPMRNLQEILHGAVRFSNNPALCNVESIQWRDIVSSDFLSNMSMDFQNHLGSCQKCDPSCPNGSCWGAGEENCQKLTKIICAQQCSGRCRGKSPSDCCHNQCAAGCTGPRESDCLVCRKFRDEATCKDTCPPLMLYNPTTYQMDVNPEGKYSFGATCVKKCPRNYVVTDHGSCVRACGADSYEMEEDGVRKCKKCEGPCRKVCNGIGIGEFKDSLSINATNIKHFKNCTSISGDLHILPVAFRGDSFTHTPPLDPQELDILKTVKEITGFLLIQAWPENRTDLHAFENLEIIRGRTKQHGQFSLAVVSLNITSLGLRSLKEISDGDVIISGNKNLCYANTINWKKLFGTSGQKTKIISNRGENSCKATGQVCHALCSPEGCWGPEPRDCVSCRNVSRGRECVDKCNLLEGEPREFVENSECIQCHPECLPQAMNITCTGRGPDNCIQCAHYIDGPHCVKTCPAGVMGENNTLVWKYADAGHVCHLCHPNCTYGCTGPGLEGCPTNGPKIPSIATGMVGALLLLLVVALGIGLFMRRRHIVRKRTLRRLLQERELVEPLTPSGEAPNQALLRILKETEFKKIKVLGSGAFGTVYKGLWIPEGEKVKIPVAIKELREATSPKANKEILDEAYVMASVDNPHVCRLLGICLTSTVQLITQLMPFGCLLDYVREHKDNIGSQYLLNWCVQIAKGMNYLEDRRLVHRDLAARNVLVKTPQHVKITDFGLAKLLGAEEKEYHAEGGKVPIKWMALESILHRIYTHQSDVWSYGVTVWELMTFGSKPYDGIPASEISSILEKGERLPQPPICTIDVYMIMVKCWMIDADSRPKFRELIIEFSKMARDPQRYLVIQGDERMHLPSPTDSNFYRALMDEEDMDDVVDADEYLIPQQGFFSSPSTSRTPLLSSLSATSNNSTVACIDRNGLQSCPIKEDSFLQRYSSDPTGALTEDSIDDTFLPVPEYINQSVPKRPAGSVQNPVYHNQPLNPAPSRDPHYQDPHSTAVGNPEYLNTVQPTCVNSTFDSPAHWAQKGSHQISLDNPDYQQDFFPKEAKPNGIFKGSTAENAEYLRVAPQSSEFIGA

[3] = test system: MCF-7 breast cancer cell line; assay: MTT antiproliferative assay, MCF-7; assay type: cell-based; conditions: 10 µM, 24 h
Method: (§1) At least, three independent experiments were performed.

[4] = test system: HeLa cervical cancer cell line; assay: MTT antiproliferative assay, HeLa; assay type: cell-based; conditions: 10 µM, 24 h
Method: as §1

c-Src = biological target: T5, c-Src (Homo sapiens, UniProt P12931); assay: Z`-LYTE kinase profiling, c-Src; assay type: biochemical
T5 construct: purchased Invitrogen/Life Technologies

BTK = biological target: T6, BTK (Homo sapiens, UniProt Q06187); assay: Z`-LYTE kinase profiling, BTK; assay type: biochemical
T6 construct: purchased Invitrogen/Life Technologies

VEGFR-1 = biological target: T7, VEGFR-1 (Homo sapiens, UniProt P17948); assay: Z`-LYTE kinase profiling, VEGFR-1; assay type: biochemical
T7 construct: purchased Invitrogen/Life Technologies

[5] = test system: MDMBA-231 breast cancer cell line; assay: MTT antiproliferative assay, MDMBA-231; assay type: cell-based; conditions: 10 µM, 24 h
Method: as §1

recombinant human TOP1 = biological target: T8, recombinant human TOP1 (Homo sapiens, UniProt P11387); assay: Topoisomerase I-mediated DNA cleavage assay; conditions: tested at 0.1, 1, 10, 100 µM
T8 sequence (P11387 1-765): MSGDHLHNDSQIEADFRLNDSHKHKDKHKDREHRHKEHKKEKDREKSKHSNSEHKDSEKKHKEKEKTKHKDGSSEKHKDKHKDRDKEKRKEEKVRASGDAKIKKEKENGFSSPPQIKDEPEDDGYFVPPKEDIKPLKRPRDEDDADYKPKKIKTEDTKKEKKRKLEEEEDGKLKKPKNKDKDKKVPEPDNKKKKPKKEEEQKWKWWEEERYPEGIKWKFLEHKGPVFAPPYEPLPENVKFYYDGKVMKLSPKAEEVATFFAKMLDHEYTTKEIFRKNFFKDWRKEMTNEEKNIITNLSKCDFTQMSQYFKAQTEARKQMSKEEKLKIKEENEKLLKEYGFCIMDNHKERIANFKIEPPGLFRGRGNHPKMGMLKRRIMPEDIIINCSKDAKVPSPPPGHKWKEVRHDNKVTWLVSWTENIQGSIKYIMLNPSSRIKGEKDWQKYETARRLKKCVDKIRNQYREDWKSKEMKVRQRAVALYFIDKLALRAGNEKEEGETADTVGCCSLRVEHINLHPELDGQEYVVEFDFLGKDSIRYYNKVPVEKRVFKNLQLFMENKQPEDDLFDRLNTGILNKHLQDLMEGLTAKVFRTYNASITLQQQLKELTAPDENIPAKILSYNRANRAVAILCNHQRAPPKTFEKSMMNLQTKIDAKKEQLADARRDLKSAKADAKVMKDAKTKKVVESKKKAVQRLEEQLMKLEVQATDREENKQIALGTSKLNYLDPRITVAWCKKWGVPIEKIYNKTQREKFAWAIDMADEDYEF
Method: Radiolabeled DNA was incubated with recombinant human TOP1 in 20 µL reaction buffer (10 mmol/L Tris-HCl, pH 7.5, 50 mmol/L KCl, 5 mmol/L MgCl2, 0.1 mmol/L EDTA, and 15 µg/mL BSA) at 30 °C for 20 min in the presence of the indicated drug concentrations. Reactions were terminated by adding SDS (0.5% final concentration) followed by the addition of two volumes of loading dye (80% formamide, 10 mmol/L sodium hydroxide, 1 mmol/L sodium EDTA, 0.1% xylene cyanol, and 0.1% bromophenol blue). Aliquots of reaction mixtures were subjected to 20% denaturing PAGE. Gels were dried and visualised by using PhosphorImager and Image Quant software (Molecular Dynamics).

Sequence of FAK (Q05397 whole entry): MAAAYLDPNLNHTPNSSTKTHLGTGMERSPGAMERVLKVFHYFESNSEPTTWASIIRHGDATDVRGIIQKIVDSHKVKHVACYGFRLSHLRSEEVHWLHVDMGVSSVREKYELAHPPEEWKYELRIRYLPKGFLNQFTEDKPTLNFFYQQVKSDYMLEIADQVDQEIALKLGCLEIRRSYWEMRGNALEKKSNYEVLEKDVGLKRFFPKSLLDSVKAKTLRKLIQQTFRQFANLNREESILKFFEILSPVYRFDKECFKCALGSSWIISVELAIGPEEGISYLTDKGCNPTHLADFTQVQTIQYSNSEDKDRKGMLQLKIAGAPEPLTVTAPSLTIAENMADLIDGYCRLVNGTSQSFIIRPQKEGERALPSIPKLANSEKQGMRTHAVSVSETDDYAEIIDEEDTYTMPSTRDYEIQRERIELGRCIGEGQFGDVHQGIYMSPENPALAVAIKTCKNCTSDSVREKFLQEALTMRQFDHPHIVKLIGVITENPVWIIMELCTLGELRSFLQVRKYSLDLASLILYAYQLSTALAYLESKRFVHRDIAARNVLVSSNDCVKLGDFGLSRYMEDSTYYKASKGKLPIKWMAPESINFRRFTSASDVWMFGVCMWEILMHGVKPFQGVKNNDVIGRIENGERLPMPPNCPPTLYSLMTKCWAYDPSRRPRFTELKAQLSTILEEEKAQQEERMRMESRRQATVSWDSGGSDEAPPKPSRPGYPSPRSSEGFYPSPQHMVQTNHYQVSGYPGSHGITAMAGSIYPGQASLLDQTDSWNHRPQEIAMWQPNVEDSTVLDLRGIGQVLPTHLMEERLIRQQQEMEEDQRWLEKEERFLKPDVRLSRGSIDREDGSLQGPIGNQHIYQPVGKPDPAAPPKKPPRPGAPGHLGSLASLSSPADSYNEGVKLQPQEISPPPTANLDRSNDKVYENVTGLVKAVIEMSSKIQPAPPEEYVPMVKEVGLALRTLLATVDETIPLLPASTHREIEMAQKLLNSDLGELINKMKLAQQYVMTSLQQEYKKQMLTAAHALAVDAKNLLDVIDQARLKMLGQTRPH
T2 sequence (P35968 20-1356): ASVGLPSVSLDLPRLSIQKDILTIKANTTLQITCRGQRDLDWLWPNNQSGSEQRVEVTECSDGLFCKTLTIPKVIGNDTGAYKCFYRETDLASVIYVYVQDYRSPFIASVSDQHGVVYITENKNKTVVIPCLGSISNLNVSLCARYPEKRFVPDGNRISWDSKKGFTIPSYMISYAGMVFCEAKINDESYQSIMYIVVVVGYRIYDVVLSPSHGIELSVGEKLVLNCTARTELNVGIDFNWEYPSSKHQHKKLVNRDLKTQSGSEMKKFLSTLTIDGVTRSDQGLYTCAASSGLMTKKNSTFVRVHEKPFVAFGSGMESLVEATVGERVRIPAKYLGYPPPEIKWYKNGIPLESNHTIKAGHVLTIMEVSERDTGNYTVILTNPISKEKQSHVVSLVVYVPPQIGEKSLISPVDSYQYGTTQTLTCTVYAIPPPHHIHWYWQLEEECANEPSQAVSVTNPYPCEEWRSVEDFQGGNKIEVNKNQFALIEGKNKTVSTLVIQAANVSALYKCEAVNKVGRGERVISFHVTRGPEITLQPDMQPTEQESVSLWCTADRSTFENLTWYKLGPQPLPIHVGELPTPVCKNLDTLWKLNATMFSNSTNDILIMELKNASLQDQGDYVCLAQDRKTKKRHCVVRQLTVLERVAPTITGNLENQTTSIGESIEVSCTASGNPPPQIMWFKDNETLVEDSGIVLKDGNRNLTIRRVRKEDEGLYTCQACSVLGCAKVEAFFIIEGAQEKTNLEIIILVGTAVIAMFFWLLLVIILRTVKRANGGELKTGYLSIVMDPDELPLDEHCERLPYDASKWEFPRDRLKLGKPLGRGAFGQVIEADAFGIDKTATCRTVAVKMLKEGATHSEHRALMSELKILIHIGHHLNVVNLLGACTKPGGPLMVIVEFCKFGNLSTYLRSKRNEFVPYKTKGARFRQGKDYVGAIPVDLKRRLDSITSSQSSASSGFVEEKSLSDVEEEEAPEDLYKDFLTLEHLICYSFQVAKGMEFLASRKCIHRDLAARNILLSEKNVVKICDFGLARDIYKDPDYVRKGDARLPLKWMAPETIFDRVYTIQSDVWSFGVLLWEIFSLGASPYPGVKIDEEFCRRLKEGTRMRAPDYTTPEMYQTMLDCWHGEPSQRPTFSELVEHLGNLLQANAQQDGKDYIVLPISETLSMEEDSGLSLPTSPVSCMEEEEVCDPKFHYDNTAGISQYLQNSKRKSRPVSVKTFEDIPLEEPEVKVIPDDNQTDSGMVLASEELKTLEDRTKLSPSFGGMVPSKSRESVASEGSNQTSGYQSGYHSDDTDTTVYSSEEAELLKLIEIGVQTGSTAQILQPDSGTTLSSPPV

IC50 (IGF-1R) [µM] | IC50 (VEGFR-2) [µM] | IC50 (FAK) [µM] | IC50 [1] [µM] | IC50 (HER-2) [µM] | IC50 (FRK) [µM] | IC50 [2] [µM] | IC50 (EGFR) [µM] | IC50 (c-Src) [µM] | IC50 (BTK) [µM] | IC50 (VEGFR-1) [µM] | TOP1 inhibitory activity (semiquantitative score relative to 1 µM CPT) (recombinant human TOP1) | melting point [°C] | fold decreased activity than Gefitinib, EGFR (EGFR; from IC50 values) [fold] | Structure (SMILES) | GI% HCT-116 [1] [%] | GI% DLD1 [2] [%] | GI% MCF-7 [3] [%] | GI% Hela [4] [%] | GI% MDMBA-231 [5] [%]
1.06 | 6.37 | 0.198 ± 0.0123 | > 100 | 0.989 | 0.846 | > 100 | 0.349 ± 0.014 | 4.54 | 5.6 | 0.648 | 0 | 135 to 137 | – | COc1cc2nc(-c3ccc(-c4ccco4)cc3)cc(OCCCN3CCN(C)CC3)c2cc1OC [8a, 2-(4-(furan-2-yl)phenyl)-6,7-dimethoxy-4-(3-(4-methylpiperazin-1-yl)propoxy)quinoline] | 1.02 | 5.15 | 7.22 | 11.78 | 4.40
3.9 | 8.37 | 0.0298 ± 0.00237 | 9.84 ± 0.68 | 1.07 | 3.92 | 7.34 ± 1.22 | 0.0355 ± 0.0015 | 7.2 | 2.92 | 6.96 | 0 | 155 to 157 | – | COc1cc2nc(-c3ccc(-c4cccs4)cc3)cc(OCCCN3CCN(C)CC3)c2cc1OC [8b, 6,7-dimethoxy-4–(3-(4-methylpiperazin-1-yl)propoxy)-2–(4-(thiophen-2-yl)phenyl)quinol-ine] | 52.10 | 74.25 | 74.90 | 50.81 | 36.87
0.198 | 8.55 | 0.2987 ± 0.00194 | > 100 | 1.02 | 8.91 | > 100 | 0.244 ± 0.00841 | 1.03 | 4.76 | 4.39 | 0 | 110 to 112 | – | CN1CCN(CCCOc2cc(-c3ccc(C(F)(F)F)cc3)nc3ccccc23)CC1 [10a, 4-(3-(4-methylpiperazin-1-yl)propoxy)-2-(4-(trifluoromethyl)phenyl)quinoline] | 18.64 | 22.51 | 14.26 | 25.64 | 37.15
5.74 | 8.68 | 0.165 ± 0.00537 | > 100 | 0.598 | 4.37 | 40.3 ± 2.09 | 0.18 ± 0.00912 | 7.78 | 2.98 | 8.51 | 0 | 68 to 70 | – | FC(F)(F)c1ccc(-c2cc(OCCCNC3CCCCC3)c3ccccc3n2)cc1 [10b, N-(3-((2-(4-(trifluoromethyl)phenyl)quinolin-4-yl)oxy)propyl)cyclohexanamine] | 24.10 | 35.72 | 64.81 | 55.49 | 45.35
5.37 | 0.0483 | 0.225 ± 0.014 | > 100 | 0.0348 | 0.734 | > 100 | 0.125 ± 0.00794 | 0.0553 | 0.196 | 1.76 | −/+ (−/+: 0–25% 1 µM CPT) | 146 to 148 | – | Clc1ccc(-c2cc(OCCCn3ccnc3)c3cc4c(cc3n2)OCO4)cc1 [12a, 8-(3-(1H-imidazol-1-yl)propoxy)-6-(4-chlorophenyl)-[1,3] dioxolo[4,5-g]quinoline] | 16.25 | 21.25 | 11.72 | 22.79 | 4.98
7.16 | 0.027 | 0.0709 ± 0.00316 | 14.4 ± 3.69 | 0.0273 | 1.13 | 8.36 ± 1.08 | 0.0954 ± 0.00205 | 0.0423 | 0.213 | 5.99 | −/+ (−/+: 0–25% 1 µM CPT) | 153 to 155 | 2 | Clc1ccc(-c2cc(OCCCN3CCOCC3)c3cc4c(cc3n2)OCO4)cc1 [12b, 6-(4-chlorophenyl)-8-(3-morpholinopropoxy)-[1,3]dioxolo [4,5-g]quinoline] | 31.28 | 72.95 | 64.38 | 25.39 | 14.28
9 | 0.0569 | 0.111 ± 0.00894 | 6.37 ± 1.09 | 0.169 | 4.88 | 9.12 ± 2.11 | 0.247 ± 0.0123 | 0.119 | 0.0995 | 7.72 | 0 | 125 to 127 | – | FC(F)(F)c1ccc(-c2cc(OCCCn3ccnc3)c3cc4c(cc3n2)OCO4)cc1 [12c, 8-(3-(1H-imidazol-1-yl)propoxy)-6-(4-(trifluoromethyl)phenyl)-[1,3]dioxolo[4,5-g]qui-noline] | 80.49 | 71.94 | 43.27 | 68.22 | 61.94

More lines, now with the values behind:

Structure (SMILES) | IC50 (IGF-1R) [µM] | IC50 (VEGFR-2) [µM] | IC50 (FAK) [µM] | IC50 [1] [µM] | IC50 (HER-2) [µM] | IC50 (FRK) [µM] | IC50 [2] [µM] | IC50 (EGFR) [µM] | IC50 (c-Src) [µM] | IC50 (BTK) [µM] | IC50 (VEGFR-1) [µM] | TOP1 inhibitory activity (semiquantitative score relative to 1 µM CPT) (recombinant human TOP1) | melting point [°C] | fold decreased activity than Gefitinib, EGFR (EGFR; from IC50 values) [fold] | GI% HCT-116 [1] [%] | GI% DLD1 [2] [%] | GI% MCF-7 [3] [%] | GI% Hela [4] [%] | GI% MDMBA-231 [5] [%]
COc1cc2nc(-c3ccc(C)cc3)cc(OCCCNC3CCN(C)CC3)c2cc1OC [6m, N-(3-((6,7-dimethoxy-2-(p-tolyl)quinolin-4-yl)oxy)propyl)-1-methylpiperidin-4-amine] | 2.81 | 2.83 | 0.172 ± 0.0137 | 43.1 ± 1.05 | 0.332 | 2.76 | 54.2 ± 2.11 | 0.154 ± 0.0128 | 0.98 | 2.46 | 0.865 | −/+ (−/+: 0–25% 1 µM CPT) | 66 to 68 | – | 24.31 | 22.16 | 22.09 | 30.19 | 8.16
COc1cc2nc(-c3ccc(C)cc3)cc(OCCCNCC3CCCO3)c2cc1OC (stereo not shown) [6n, 3-((6,7-dimethoxy-2-(p-tolyl)quinolin-4-yl)oxy)-N-((tetrahydrofuran-2-yl)methyl)propa-n-1-amine] | 2.81 | 1.19 | 0.0444 ± 0.00294 | 8.69 ± 0.94 | 1.39 | 2.52 | 6.11 ± 1.8 | 0.0418 ± 0.00234 | 0.0827 | 0.819 | 0.556 | 0 | 60 to 62 | – | 64.26 | 81.34 | 58.15 | 71.12 | 14.39
COc1cc2nc(-c3ccc(C)cc3)cc(OCCCn3ccnc3)c2cc1OC [6o, 4-(3-(1H-imidazol-1-yl)propoxy)-6,7-dimethoxy-2-(p-tolyl)quinoline] | 0.408 | 3.62 | 0.205 ± 0.00804 | > 100 | 1.38 | 0.786 | > 100 | 0.256 ± 0.00694 | 3.49 | 3.83 | 0.511 | 0 | 203 to 205 | – | 1.08 | 12.36 | 5.36 | 9.16 | 8.64

From publication PMC8725837, “2-Arylquinolines as novel anticancer agents with dual EGFR/FAK kinase inhibitory activity: synthesis, biological evaluation, and molecular modelling insights” (Journal of Enzyme Inhibition and Medicinal Chemistry, 2021)
